Key:
[1] = target: SNAP-hSPR (sepiapterin reductase, SPR) (Homo sapiens, UniProt P35270); experiment: biochemical; format: binding; details: terbium labelled SNAP-hSPR / SSZ labelled SNAP-EGFP; read-out: hTR-FRET IC50
[2] = tested on: BH4 levels in SK-N-BE (2) cells; experiment: SKN-N-BE (2) cellular assay, BH4 levels by LC-MS; format: cell-based; details: Homo sapiens, SKNBE2, read-out: SK-N-BE(2) IC50, SK-N-BE (2) cells, BH4 levels by LC-MS
Protocol: SKN-N-BE(2) Cellular Assay: SK-N-BE (2) cells were seeded in sterile, 96-well plates and incubated for 12-24 hours at 37° C. with 5% CO2 supply. Media was removed and fresh DMEM/F-12 media (containing Glutamine & Pen/Strep but no FBS) was added. Compounds (at different concentrations) were added to different wells. The plates were then incubated for 6-48 hours at 37° C. with 5% CO2 supply. Plates were then centrifuged and the supernatant was removed. The plates were then optionally washed once with PBS. They were then sealed and stored at −80° C. or immediately used. The cells were lysed and the level of BH4 was assessed by LC-MS.
Compounds were assayed for SPR inhibitory activity using a SKN-N-BE (2) cellular assay according to the following procedure. SK-N-BE (2) cells were seeded in sterile, 96-well plates and incubated for 12-24 hours at 37° C. with 5% CO2 supply. Media was removed and fresh DMEM/F-12 media (containing Glutamine & Pen/Strep but no FBS) was added. Compounds (at different concentrations) were added to different wells. The plates were then incubated for 6-48 hours at 37° C. with 5% CO2 supply. Plates were then centrifuged and the supernatant was removed. The plates were then optionally washed once with PBS. They were then sealed and stored at −80° C. or immediately used in the next step. The cells were lysed and the levels of BH4 were assessed by LC-MS.

[3] = tested on: BH4 production in human peripheral blood mononuclear cells (PBMCs); experiment: hPBMC assay, inhibition of BH4 production by LC-MS (anti-CD3/anti-CD28 stimulated); format: cell-based; details: PBMC, read-out: hPBMC IC50

Chain of SNAP-hSPR (sepiapterin reductase, SPR) (P35270 whole entry): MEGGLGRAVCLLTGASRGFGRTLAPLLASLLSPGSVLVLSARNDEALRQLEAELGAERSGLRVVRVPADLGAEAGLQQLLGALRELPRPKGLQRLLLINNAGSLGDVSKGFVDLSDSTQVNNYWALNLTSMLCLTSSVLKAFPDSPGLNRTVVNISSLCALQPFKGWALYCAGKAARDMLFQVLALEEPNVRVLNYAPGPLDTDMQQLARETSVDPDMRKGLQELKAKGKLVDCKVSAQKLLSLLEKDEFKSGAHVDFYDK

SMILES | IC50 [1] [nM] | IC50 [2] [nM] | IC50 [3] [nM]
Cc1c(C(=O)N2CCN(C(C)(C)C)CC2)cnn1-c1nn2cccc2c(=O)[nH]1 [Q-0888] | 5 | 400 | 240
Cc1c(C(=O)N2CC3(CN(CC(F)(F)F)C3)C2)cnn1-c1nn2cccc2c(=O)[nH]1 [Q-0891] | 4 | 900 | 240
Cc1c(C(=O)N2CCN(C(=O)OC(C)(C)C)C[C@H]2C)cnn1-c1nn2cccc2c(=O)[nH]1 [Q-0892] | 2 | 400 | 76
Cc1c(C(=O)N2C[C@@H]3CCC(F)(F)[C@@H]3C2)cnn1-c1nn2cccc2c(=O)[nH]1 [Q-0896] | 1 | 300 | 49
Cc1c(C(=O)N2CCN(C(=O)OC(C)(C)C)[C@H](C)C2)cnn1-c1nn2cccc2c(=O)[nH]1 [Q-0899] | 1 | 300 | 48
Cc1c(C(=O)N2CCN3CC(F)(F)C[C@H]3C2)cnn1-c1nn2cccc2c(=O)[nH]1 [Q-0906] | 3 | 800 | 190
Cc1c(C(=O)N2CCN(CC(F)(F)F)C(C)C2)cnn1-c1nn2cccc2c(=O)[nH]1 (stereo not drawn) [Q-0908] | 1 | 300 | 130
Cc1c(C(=O)N2C3CCC2CC(F)(F)C3)cnn1-c1nn2cccc2c(=O)[nH]1 [Q-0910] | 2 | 500 | 74
Cc1c(C(=O)N2CCC3(CC2)CC3C(=O)N2CCCC2)cnn1-c1nn2cccc2c(=O)[nH]1 (stereo not drawn) [Q-0911] | 2 | 400 | 110
Cc1c(C(=O)N2CCN(C(=O)OC(C)(C)C)C[C@@H]2C)cnn1-c1nn2cccc2c(=O)[nH]1 [Q-0915] | 2 | 500 | 92
Cc1c(C(=O)N2CCC3OCCCC3C2)cnn1-c1nn2cccc2c(=O)[nH]1 (stereo not drawn) [Q-0917] | 3 | 700 | 100
Cc1c(C(=O)N2CCN(CC#N)CC2)cnn1-c1nn2cccc2c(=O)[nH]1 [Q-0918] | 2 | 600 | 120
Cc1c(C(=O)N2CCC3(CC3)C2)cnn1-c1nn2cccc2c(=O)[nH]1 [Q-0921] | 2 | 400 | 47
Cc1c(C(=O)N2CCC3(CC2)CN(C(=O)OC(C)(C)C)C3)cnn1-c1nc2c(c(=O)[nH]1)CCC2 [Q-0924] | 2 | 200 | 51
Cc1c(C(=O)N2CCC(C(F)F)CC2)cnn1-c1nn2cccc2c(=O)[nH]1 [Q-0926] | 1 | 200 | 45
Cc1c(C(=O)N2CC3C(C2)C3(C)C)cnn1-c1nn2cccc2c(=O)[nH]1 (stereo not drawn) [Q-0927] | 1 | 200 | 81
Cc1c(C(=O)N2CCC3(CC2)CC3C(=O)N(C)C2CC2)cnn1-c1nn2cccc2c(=O)[nH]1 (stereo not drawn) [Q-0930] | 1 | 300 | 58
Cc1c(C(=O)N2CC(N3CCC(F)(F)C3)C2)cnn1-c1nc2c(c(=O)[nH]1)CCC2 [Q-0937] | 4 | 800 | 130
Cc1c(C(=O)N2CCC(n3cccc3)CC2)cnn1-c1nn2cccc2c(=O)[nH]1 [Q-0941] | 1 | 300 | 13

SMILES | IC50 [1] [nM] | IC50 [2] [nM] | IC50 [3] [nM]
Cc1c(C(=O)N2CCC(C3(C(F)(F)F)CC3)CC2)cnn1-c1nc2c(c(=O)[nH]1)CCC2 [Q-0943] | 2 | 18 | 38
Cc1c(C(=O)N2CCC(C3(C(F)(F)F)CC3)CC2)cnn1-c1nn2cccc2c(=O)[nH]1 [Q-0944] | 1 | 28 | 36
Cc1c(C(=O)N2CCC(C3(C#N)CC3)CC2)cnn1-c1nc2c(c(=O)[nH]1)CCC2 [Q-0948] | 1 | 100 | 53
Cc1c(C(=O)N2CC3(CCN(CC(F)(F)F)CC3)C2)cnn1-c1nn2cccc2c(=O)[nH]1 [Q-0951] | 2 | 400 | 45
Cc1c(C(=O)N2CCC(C#N)(c3ccccn3)CC2)cnn1-c1nn2cccc2c(=O)[nH]1 [Q-0952] | 1 | 300 | 83
Cc1c(C(=O)N2CCC(c3noc(C4CC4)n3)CC2)cnn1-c1nn2cccc2c(=O)[nH]1 [Q-0953] | 1 | 58 | 21
Cc1c(C(=O)N2CCN(C(C)C(F)(F)F)CC2)cnn1-c1nn2cccc2c(=O)[nH]1 (stereo not drawn) [Q-0956] | 1 | 86 | 14
Cc1c(C(=O)N2CCC(c3nccs3)CC2)cnn1-c1nn2cccc2c(=O)[nH]1 [Q-0969] | 1 | 200 | 160
Cc1c(C(=O)N2CC3CCCC(C2)N3C(=O)OC(C)(C)C)cnn1-c1nn2cccc2c(=O)[nH]1 [Q-0972] | 1 | 65 | 14
COC1(C)CCN(C(=O)c2cnn(-c3nn4cccc4c(=O)[nH]3)c2C)CC1 [Q-0973] | 1 | 700 | 80
Cc1c(C(=O)N2CCC(S(=O)(=O)C(C)C)CC2)cnn1-c1nn2cccc2c(=O)[nH]1 [Q-0977] | 1 | 500 | 86
C=CCC(C#N)C1CCN(C(=O)c2cnn(-c3nn4cccc4c(=O)[nH]3)c2C)CC1 (stereo not drawn) [Q-0978] | 1 | 81 | 59
Cc1c(C(=O)N2CCC(C#N)(CC(F)(F)F)CC2)cnn1-c1nn2cccc2c(=O)[nH]1 [Q-0986] | 2 | 700 | 110
Cc1c(C(=O)N2CCCN(CC(F)(F)F)CC2)cnn1-c1nn2cccc2c(=O)[nH]1 [Q-0992] | 3 | 800 | 98
Cc1c(C(=O)N2CC(N3CCCC(F)(F)C3)C2)cnn1-c1nn2cccc2c(=O)[nH]1 [Q-0993] | 3 | 1100 | 160
Cc1c(C(=O)N2CCC(N3CCC(F)(F)CC3)CC2)cnn1-c1nn2cccc2c(=O)[nH]1 [Q-0995] | 2 | 600 | 180
Cc1c(C(=O)N2CCC3(CC2)CC(F)C3)cnn1-c1nn2cccc2c(=O)[nH]1 [Q-0998] | 1 | 300 | 92
Cc1c(C(=O)N2CCC(c3cccnc3F)CC2)cnn1-c1nn2cccc2c(=O)[nH]1 [Q-1003] | 1 | 100 | 51
Cc1c(C(=O)N2CCC3(CC2)CC3)nnn1-c1nn2cccc2c(=O)[nH]1 [Q-1005] | 1 | 300 | 100

SMILES | IC50 [1] [nM] | IC50 [2] [nM] | IC50 [3] [nM]
Cc1c(C(=O)N2CCN(CC(F)(F)F)CC2)nnn1-c1nn2cccc2c(=O)[nH]1 [Q-1007] | 1 | 500 | 120
Cc1c(C(=O)N2CCN(CC3CCC3)[C@H](C)C2)cnn1-c1nn2cccc2c(=O)[nH]1 [Q-1020] | 2 | 300 | 200
Cc1c(C(=O)N2CCN(C3CC3)CC2)cnn1-c1nc2c(c(=O)[nH]1)CCC2 [Q-1022] | 2 | 100 | 41
Cc1c(C(=O)N2CC3(C2)CC(F)(F)C3)nnn1-c1nn2cccc2c(=O)[nH]1 [Q-1024] | 1 | 300 | 56
Cc1c(C(=O)N2C[C@@H]3C[C@H]2CN3Cc2ccccc2)cnn1-c1nn2cccc2c(=O)[nH]1 [Q-1033] | 8 | 400 | 260
Cc1c(C(=O)N2CC=C(C3(C#N)CC3)CC2)cnn1-c1nn2cccc2c(=O)[nH]1 [Q-1034] | 2 | 200 | 160
Cc1c(C(=O)N2CC(F)(c3ccccc3)C2)cnn1-c1nn2cccc2c(=O)[nH]1 [Q-1038] | 2 | 300 | 340
CC[C@H](C#N)C1CCN(C(=O)c2cnn(-c3nc4c(c(=O)[nH]3)CCC4)c2C)CC1 [Q-1041] | 1 | 46 | 28
Cc1c(C(=O)N2CCC(C(=O)N3CCCC3)(C(F)(F)F)CC2)cnn1-c1nn2cccc2c(=O)[nH]1 [Q-1046] | 1 | 100 | 83
CCC(C#N)C1(F)CCN(C(=O)c2cnn(-c3nn4cccc4c(=O)[nH]3)c2C)CC1 (stereo not drawn) [Q-1047] | 1 | 200 | 66
Cc1c(C(=O)N2CC3C(C2)C3(C)C)cnn1-c1nc2c(c(=O)[nH]1)CCC2 (stereo not drawn) [Q-1048] | 1 | 200 | 50
Cc1c(C(=O)N2CCC(C(F)F)CC2)cnn1-c1nc2c(c(=O)[nH]1)CCC2 [Q-1049] | 2 | 72 | 25
CCC(C1CCN(C(=O)c2cnn(-c3nn4cccc4c(=O)[nH]3)c2C)CC1)C(F)(F)F (stereo not drawn) [Q-1051] | 1 | 53 | 27
CCC(O)(C1CCN(C(=O)c2cnn(-c3nn4cccc4c(=O)[nH]3)c2C)CC1)C(F)(F)F (stereo not drawn) [Q-1052] | 1 | 44 | 83
CCC1(C#N)CC12CCN(C(=O)c1cnn(-c3nn4cccc4c(=O)[nH]3)c1C)CC2 (stereo not drawn) [Q-1053] | 1 | 200 | 230
Cc1c(C(=O)N2CCN(C(C)C(F)(F)F)CC2)cnn1-c1nc2c(c(=O)[nH]1)CCC2 (stereo not drawn) [Q-1054] | 1 | 28 | 60
CCC(C#N)C1(O)CCN(C(=O)c2cnn(-c3nn4cccc4c(=O)[nH]3)c2C)CC1 (stereo not drawn) [Q-1055] | 1 | 700 | 160
Cc1c(C(=O)N2CCC(c3nc(-c4ccccc4)cs3)CC2)cnn1-c1nc2c(c(=O)[nH]1)CCC2 [Q-1056] | 3 | 16 | 55

From patent US9963462B2 (priority 2015, dated 2018)
